From publication PMC8334341 (Acta Pharmacologica Sinica, 2021)

Assays:
[1] = biological target: RBD domain of S protein of SARS-CoV-2 (Severe acute respiratory syndrome coronavirus 2, UniProt P0DTC2); assay: biochemical; type: binding
ACE2 = settings: read-out: IC50 (ACE2 inhibitor); cited from earlier work
[2] = biological target: binding interactions between RBD and ACE2 (Homo sapiens, UniProt Q9BYF1); design: species or system SARS-CoV-2
Chain of binding interactions between RBD and ACE2 (Q9BYF1 whole entry, looked up): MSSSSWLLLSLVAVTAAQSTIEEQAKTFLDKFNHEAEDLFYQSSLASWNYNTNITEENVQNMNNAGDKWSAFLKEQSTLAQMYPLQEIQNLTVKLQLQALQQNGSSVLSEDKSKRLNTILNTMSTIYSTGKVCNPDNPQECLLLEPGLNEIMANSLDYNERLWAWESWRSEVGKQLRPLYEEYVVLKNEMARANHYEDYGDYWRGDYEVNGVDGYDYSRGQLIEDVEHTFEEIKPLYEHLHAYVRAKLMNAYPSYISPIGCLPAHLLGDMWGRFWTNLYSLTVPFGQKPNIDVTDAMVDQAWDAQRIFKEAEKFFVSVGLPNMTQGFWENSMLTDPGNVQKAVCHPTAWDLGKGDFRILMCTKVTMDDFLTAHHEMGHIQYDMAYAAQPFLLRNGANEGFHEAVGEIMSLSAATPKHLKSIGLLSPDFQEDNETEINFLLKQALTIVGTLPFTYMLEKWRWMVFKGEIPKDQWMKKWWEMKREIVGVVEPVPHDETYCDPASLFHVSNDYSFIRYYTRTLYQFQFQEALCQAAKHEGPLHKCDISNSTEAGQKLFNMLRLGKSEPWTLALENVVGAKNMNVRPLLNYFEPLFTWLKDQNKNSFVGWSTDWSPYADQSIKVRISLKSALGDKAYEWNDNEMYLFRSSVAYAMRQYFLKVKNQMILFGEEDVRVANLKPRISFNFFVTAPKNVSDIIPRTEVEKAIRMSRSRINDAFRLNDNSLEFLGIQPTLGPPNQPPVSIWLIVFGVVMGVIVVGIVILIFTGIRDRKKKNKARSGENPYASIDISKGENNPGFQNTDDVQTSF

SMILES | Kd [1] | IC50 (ACE2) | effect on the binding affinity between RBD and ACE2 [2]
Nc1ncnc2c1ncn2[C@@H]1O[C@H](CO)C[C@H]1O [CDCP, Cordycepin] | 20.5 µM | – | –
CC(C)C[C@H](N[C@@H](Cc1cncn1Cc1cc(Cl)cc(Cl)c1)C(=O)O)C(=O)O [MLN-4760] | – | 0.00044 µM | negligible effect
C=C[C@@H]1C2=CCOC(=O)C2=CO[C@H]1O[C@@H]1O[C@H](CO)[C@@H](O)[C@H](O)[C@H]1O [GTCP, Gentiopicrin] | 29.6 µM | – | –
